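Assay format: 96-well plates, 48-hour exposure. TGI: concentration producing complete growth inhibition.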
What was measured:
Test in all cases: NCI anticancer screen, dose series, 48 h
HCC-2998 colon = test system: HCC-2998 colon
MDA-MB-435 = test system: MDA-MB-435
CCRF-CEM leukemia = test system: CCRF-CEM leukemia
HOP-62 NSCLC = test system: HOP-62 NSCLC
OVCAR-5 ovarian = test system: OVCAR-5 ovarian
MDA-N = test system: MDA-N
NCI-H522 lung = test system: NCI-H522 lung
SN12C renal = test system: SN12C renal
SF-539 CNS = test system: SF-539 CNS
DU-145 prostate = test system: DU-145 prostate
IGROV1 ovarian = test system: IGROV1 ovarian
HCT-116 colon = test system: HCT-116 colon
PC-3 prostate = test system: PC-3 prostate
CAKI-1 renal = test system: CAKI-1 renal
NCI-H460 lung = test system: NCI-H460 lung
COLO 205 colon = test system: COLO 205 colon
HCT-15 colon = test system: HCT-15 colon
LOX IMVI melanoma = test system: LOX IMVI melanoma
OVCAR-4 ovarian = test system: OVCAR-4 ovarian
HT29 colon = test system: HT29 colon
SK-OV-3 ovarian = test system: SK-OV-3 ovarian
T-47D breast = test system: T-47D breast
RPMI-8226 leukemia = test system: RPMI-8226 leukemia
SF-295 CNS = test system: SF-295 CNS
HOP-92 NSCLC = test system: HOP-92 NSCLC
A498 renal = test system: A498 renal
U251 CNS = test system: U251 CNS
HS 578T breast = test system: HS 578T breast
KM12 colon = test system: KM12 colon
NCI/ADR-RES ovarian = test system: NCI/ADR-RES ovarian
A549 NSCLC = test system: A549 NSCLC
786-0 renal = test system: 786-0 renal
SNB-19 CNS = test system: SNB-19 CNS
SNB-75 CNS = test system: SNB-75 CNS
UO-31 renal = test system: UO-31 renal
SK-MEL-5 melanoma = test system: SK-MEL-5 melanoma
NCI-H23 lung = test system: NCI-H23 lung
MALME-3M melanoma = test system: MALME-3M melanoma
SK-MEL-2 melanoma = test system: SK-MEL-2 melanoma
OVCAR-8 ovarian = test system: OVCAR-8 ovarian
NCI-H226 lung = test system: NCI-H226 lung
TK-10 renal = test system: TK-10 renal
SW-620 colon = test system: SW-620 colon
ACHN renal = test system: ACHN renal
RXF 393 renal = test system: RXF 393 renal
EKVX NSCLC = test system: EKVX NSCLC
HL-60(TB) leukemia = test system: HL-60(TB) leukemia
UACC-257 melanoma = test system: UACC-257 melanoma
SK-MEL-28 melanoma = test system: SK-MEL-28 melanoma
UACC-62 melanoma = test system: UACC-62 melanoma
MOLT-4 leukemia = test system: MOLT-4 leukemia
SF-268 CNS = test system: SF-268 CNS
K-562 leukemia = test system: K-562 leukemia
BT-549 breast = test system: BT-549 breast
MCF7 breast = test system: MCF7 breast
SR leukemia = test system: SR leukemia
M14 melanoma = test system: M14 melanoma
MDA-MB-231 breast = test system: MDA-MB-231 breast

With `CN(C)c1ccc(NN=C2SC(=Nc3ccccc3)C(=Nc3ccccc3)S2)cc1` the TGI (HCC-2998 colon) was > 100 µM, the TGI (MDA-MB-435) was > 100 µM and the TGI (CCRF-CEM leukemia) was > 100 µM. The TGI (HOP-62 NSCLC) was > 100 µM, the TGI (OVCAR-5 ovarian) was > 100 µM and the TGI (MDA-N) was > 100 µM. The TGI (NCI-H522 lung) was > 100 µM, the TGI (SN12C renal) was > 100 µM and the TGI (SF-539 CNS) was > 100 µM. For the same compound, the TGI (DU-145 prostate) was > 100 µM, the TGI (IGROV1 ovarian) was > 100 µM and the TGI (HCT-116 colon) was > 100 µM. For the same compound, the TGI (PC-3 prostate) was > 100 µM, the TGI (CAKI-1 renal) was > 100 µM and the TGI (NCI-H460 lung) was > 100 µM. The TGI (COLO 205 colon) was > 100 µM, the TGI (HCT-15 colon) was > 100 µM and the TGI (LOX IMVI melanoma) was > 100 µM. The TGI (OVCAR-4 ovarian) was > 100 µM, the TGI (HT29 colon) was > 100 µM and the TGI (SK-OV-3 ovarian) was > 100 µM. The TGI (T-47D breast) was > 100 µM, the TGI (RPMI-8226 leukemia) was > 100 µM and the TGI (SF-295 CNS) was > 100 µM. For the same compound, the TGI (HOP-92 NSCLC) was > 100 µM, the TGI (A498 renal) was > 100 µM and the TGI (U251 CNS) was > 100 µM. For the same compound, the TGI (HS 578T breast) was > 100 µM, the TGI (KM12 colon) was > 100 µM and the TGI (NCI/ADR-RES ovarian) was > 100 µM. The TGI (A549 NSCLC) was > 100 µM, the TGI (786-0 renal) was > 100 µM and the TGI (SNB-19 CNS) was > 100 µM. The TGI (SNB-75 CNS) was > 100 µM, the TGI (UO-31 renal) was > 100 µM and the TGI (SK-MEL-5 melanoma) was > 100 µM. For the same compound, the TGI (NCI-H23 lung) was > 100 µM, the TGI (MALME-3M melanoma) was > 100 µM and the TGI (SK-MEL-2 melanoma) was > 100 µM. For the same compound, the TGI (OVCAR-8 ovarian) was > 100 µM, the TGI (NCI-H226 lung) was > 100 µM and the TGI (TK-10 renal) was > 100 µM. For the same compound, the TGI (SW-620 colon) was > 100 µM, the TGI (ACHN renal) was > 100 µM and the TGI (RXF 393 renal) was > 100 µM. For the same compound, the TGI (EKVX NSCLC) was > 100 µM, the TGI (HL-60(TB) leukemia) was > 100 µM and the TGI (UACC-257 melanoma) was > 100 µM. For the same compound, the TGI (SK-MEL-28 melanoma) was > 100 µM, the TGI (UACC-62 melanoma) was > 100 µM and the TGI (MOLT-4 leukemia) was > 100 µM. The TGI (SF-268 CNS) was > 100 µM.
`COc1cc(C2SCC(=O)N2c2cccc(Cl)c2)cc(OC)c1OC` (stereo not given) was tested, and the TGI (HCC-2998 colon) was > 100 µM, the TGI (MDA-MB-435) was > 100 µM and the TGI (CCRF-CEM leukemia) was 91.2 µM. The TGI (K-562 leukemia) was > 100 µM, the TGI (OVCAR-5 ovarian) was > 100 µM and the TGI (MDA-N) was 43 µM. For the same compound, the TGI (NCI-H522 lung) was > 100 µM, the TGI (SN12C renal) was > 100 µM and the TGI (SF-539 CNS) was > 100 µM. The TGI (DU-145 prostate) was > 100 µM, the TGI (IGROV1 ovarian) was > 100 µM and the TGI (HCT-116 colon) was > 100 µM. The TGI (PC-3 prostate) was > 100 µM, the TGI (CAKI-1 renal) was > 100 µM and the TGI (NCI-H460 lung) was > 100 µM. For the same compound, the TGI (COLO 205 colon) was > 100 µM, the TGI (HCT-15 colon) was > 100 µM and the TGI (LOX IMVI melanoma) was > 100 µM. The TGI (OVCAR-4 ovarian) was > 100 µM, the TGI (HT29 colon) was > 100 µM and the TGI (SK-OV-3 ovarian) was > 100 µM. For the same compound, the TGI (RPMI-8226 leukemia) was > 100 µM, the TGI (SF-295 CNS) was > 100 µM and the TGI (HOP-92 NSCLC) was > 100 µM. For the same compound, the TGI (A498 renal) was > 100 µM, the TGI (U251 CNS) was > 100 µM and the TGI (HS 578T breast) was > 100 µM. The TGI (KM12 colon) was > 100 µM, the TGI (NCI/ADR-RES ovarian) was > 100 µM and the TGI (A549 NSCLC) was > 100 µM. For the same compound, the TGI (786-0 renal) was > 100 µM, the TGI (SNB-19 CNS) was > 100 µM and the TGI (UO-31 renal) was > 100 µM. For the same compound, the TGI (SK-MEL-5 melanoma) was > 100 µM, the TGI (NCI-H23 lung) was > 100 µM and the TGI (SK-MEL-2 melanoma) was > 100 µM. For the same compound, the TGI (OVCAR-8 ovarian) was > 100 µM, the TGI (NCI-H226 lung) was > 100 µM and the TGI (BT-549 breast) was > 100 µM. The TGI (TK-10 renal) was > 100 µM, the TGI (SW-620 colon) was > 100 µM and the TGI (ACHN renal) was > 100 µM. The TGI (MCF7 breast) was > 100 µM, the TGI (EKVX NSCLC) was > 100 µM and the TGI (SR leukemia) was > 100 µM. For the same compound, the TGI (HL-60(TB) leukemia) was > 100 µM, the TGI (UACC-257 melanoma) was > 100 µM and the TGI (SK-MEL-28 melanoma) was > 100 µM. For the same compound, the TGI (M14 melanoma) was > 100 µM, the TGI (UACC-62 melanoma) was 54.3 µM and the TGI (MOLT-4 leukemia) was > 100 µM. For the same compound, the TGI (SF-268 CNS) was > 100 µM and the TGI (MDA-MB-231 breast) was > 100 µM.

— PubChem BioAssay (NCI)
